Data from a melting point compilation (Tetko et al.; mined from patent text by program, amines drawn as free bases though some values may be those of a salt).

First: CC#CCOc1ccc(S(=O)(=O)C(C(=O)NO)C2CCN(Cc3ccc(OC)cc3)CC2)cc1 (stereo not given)
Second: O=C(O)[C@H](Cc1ccccc1)NS(=O)(=O)c1ccc(N2CCC(c3ccccc3)CC2)cc1
The melting point of the first is lower: 138 °C for the first, 167 to 169 °C for the second.

First: N#CCc1cn(-c2ccccc2)nc1OCc1ccccc1
Second: CCOP(=O)(/C=C/c1cn(-c2ccccc2)nc1OCc1ccc(OCc2sc(-c3ccccc3)nc2C)c(OC)c1)OCC
The melting point of the first is lower: 102 to 103 °C for the first, 113 to 114 °C for the second.

First: CCCOc1ccccc1-c1nc2n(C3CCCC3)[nH]c(C)c-2c(=O)n1
Second: CCOC(=O)C1CCN(Cc2nc(NCc3ccc(OC)c(Cl)c3)c3c4c(oc3n2)CCCC4)CC1
The melting point of the first is lower: 130 to 132 °C for the first, 152 °C for the second.

Compared with `CCCCCC(C)C(C)c1cc(O)c2c(c1)OC(C)(C)C1=C2CN(CC(=O)Nc2ccccc2)CC1` (stereo not given), `CC1(C)CCC(C)(C)c2cc(C(=O)C(=O)c3ccc(C(=O)O)cc3)ccc21` is higher in melting point: 125 to 127 °C for the first, 148 to 151 °C for the second.

First: COc1cc(N2CCN(C(=O)Cn3nc(C#N)c4cccnc43)CC2)ccc1Cl
Second: CC(=S)NC[C@H]1CN(c2ccc(N3CCN(c4nnc(C)s4)CC3)c(F)c2)C(=O)O1
The melting point of the first is lower: 183 to 185 °C for the first, 222 to 223 °C for the second.

First: O=C(O)CC1Cc2ccccc2C1
Second: O=C(O)CSC1c2ccccc2COc2ccc(OCc3ccc4ccccc4n3)cc21 (stereo not given)
The melting point of the first is lower: 85 to 88 °C for the first, 174 to 179 °C for the second.

Compared with `COC(=O)c1nccnc1Br`, `CCOC(=O)c1cc(Nc2cccnc2)c(=O)n(CC)n1` is higher in melting point: 43 to 45 °C for the first, 166 to 167 °C for the second.

Compared with `CCOC(=O)Cc1ccc(CCNC(=O)c2ccc(Cl)cc2)cc1`, `CCc1nc2c(C)c(NS(C)(=O)=O)cnc2n1-c1ccc(CCNC(=O)NS(=O)(=O)c2ccc(C)cc2)cc1` is higher in melting point: 118 to 119 °C for the first, 166 °C for the second.

First: CSc1ccc(C(C#N)=NO)cc1
Second: CC(=O)c1ccc2sc3ccc(C(C)=O)cc3c2c1
The melting point of the first is lower: 132 to 133 °C for the first, 207 to 210 °C for the second.

Compared with `Cn1c(SCSC#N)nc2ccccc2c1=O`, `COc1ccc(SCC(=O)c2ccccc2)cc1C` is lower in melting point: 118 to 121 °C for the first, 41 to 43 °C for the second.

First: O=C1Nc2c(Cl)cc(Cl)cc2C12CCCC2
Second: Cc1c(Cl)cc(-c2ccc(OC(=O)N3CCOCC3)nn2)cc1Cl
The melting point of the first is higher: 175 to 176 °C for the first, 155 to 159 °C for the second.

First: CC(C)(C)OC(=O)N[C@@H](COS(C)(=O)=O)c1ccccc1
Second: CC(C)(C(=O)O)c1oc2cccc-2cc1-c1ccccc1
The melting point of the first is lower: 108 to 109 °C for the first, 169 to 171 °C for the second.

First: O=C(O)CC(CC(=O)Nc1cc(O)c(Cl)cc1F)C(F)(F)F (stereo not given)
Second: Cc1cc(Oc2cccc(C(F)(F)F)c2)nn1C(=O)Nc1ccc(Cl)cc1Cl
The melting point of the first is higher: 171 to 174 °C for the first, 113 to 114 °C for the second.

First: Cc1ccc(S(=O)(=O)OC2=C(Br)C(=O)c3c(ccc4c3CCC(C)(C)O4)C2=O)cc1
Second: CCS(=O)(=O)c1ccc(Oc2ccc(Cl)c(Cl)c2)nc1
The melting point of the first is lower: 109 to 115 °C for the first, 117 to 118 °C for the second.

Compared with `CC(=O)Nc1ccc(OC(C)=O)c2cnsc12`, `O=C(O)c1nnc(-c2ccc(Cl)cc2)o1` is higher in melting point: 215 to 216 °C for the first, 277 to 284 °C for the second.

First: CC(C)Cc1c2c(nn1C)c(N)nc1ncccc12
Second: COCOc1ccc(CO[Si](C)(C)C(C)(C)C)c2cccc(C)c12
The melting point of the first is higher: greater than 250 °C for the first, 42 to 43 °C for the second.

Compared with `Cn1c(=O)c(-c2ccc(Cl)cc2Cl)cc2c3cc(-c4coc(N)n4)ccc3n(C)c21`, `CCOc1cccc2cc(S(=O)(=O)Nc3ccc(F)c(N)c3)c(=O)oc12` is lower in melting point: 295 to 297 °C for the first, 160 to 162 °C for the second.

First: Nc1ccccc1Nc1ccc(C(c2ccc(Nc3ccccc3N)cc2)(C(F)(F)F)C(F)(F)F)cc1
Second: CCCn1c(=O)c(-c2ccccc2)c2n(c1=O)CCC(Sc1ccccc1)S2 (stereo not given)
The melting point of the first is higher: 150 to 152 °C for the first, 126 to 127 °C for the second.

Compared with `COc1cccc([C@H]2O[C@H](CC(=O)Nc3c(C)c(C)c4oc(C(=O)O)cc4c3C)C(=O)N(CC(C)(C)CO)c3ccc(Cl)cc32)c1OC`, `COC(=O)C(=O)c1c(OC)cc(OCCOc2ccc3ccccc3c2)cc1OC` is lower in melting point: 246 to 248 °C for the first, 161 to 162 °C for the second.

Compared with `CCCCCCCCCCCCCCCCCCNS(N)(=O)=O`, `N#Cc1c(O)csc1N1CCOCC1` is higher in melting point: 105 to 107 °C for the first, 191 °C for the second.
